pKd: −log10 of the molar value. Read-outs that look alike come from different tables or passages of the source.
Key:
[1] = system: yeast strain JAR200 expressing L5-MG E52D scFv on the cell surface; assay: Flow cytometric quantification of dyedron binding to yeast displayed L5-MG E52D; type: cell-based, Saccharomyces cerevisiae; conditions: for increase in specific brightness (factor), 532 nm vs 635 nm staining ratio / 532 laser median / 635 laser median / 532 laser mean / 635 laser mean: 300 nM dyedron; for increase in specific brightness (factor), 532 nm vs 635 nm staining ratio: live yeast; for 532 laser median / 635 laser median / 532 laser mean / 635 laser mean: 675/50 bandpass, JAR200 L5-MG E52D; for 532 laser mean / 635 laser mean: gated positive population; for FACS532/FACS635: median of stained population - median of unstained control
Description: (§1) FIG. 15. Flow cytometric analysis of dyedron-labeled yeast by exciting donor (blue) or acceptor (red). Saccharomyces cerevisiae cells expressing L5-MG E52D on their surface were analyzed essentially as described in WO 08/092,041 and in Szent-Gyorgyi, C.; Schmidt, B. F.; Creeger, Y.; Fisher, G. W.; Zakel, K. L.; Adler, S.; Fitzpatrick, J. A. J.; Woolford, C. A.; Yan, Q.; Vasilev, K. V.; Berget, P. B.; Bruchez, M. P.; Jarvik, J. W.; Waggoner, A. Nature Biotechnology 2008, 26, 235-240. Two aliquots of each stained population and an unstained control (U) were respectively analyzed, exciting at 532 nm (donor) or 635 nm (acceptor), and collecting emission through a 675/50 nm bandpass (BP) filter. Each analysis comprised 100,000 cells. Stained samples contain a sub-population of non-fluorescent cells due to loss of scFv-encoding plasmid, whose signal corresponds to that of unstained samples (marked by thin lines). Controls show virtually no fluorescence generated by dyedrons on cell surfaces in the absence of expressed FAP (Table 3). Unstained cells excited at 532 nm are relatively brighter than those excited at 635 nm due to higher cellular autofluorescence at the shorter wavelength. Doublet stained peaks correspond to unbudded and budded yeast cells, and are typical for such experiments. Separation of the positive cells from negative cells remains essentially constant under 635 nm excitation but increases in proportion to the number of Cy3 donors under 532 nm excitation. The enhanced excitation in the dyedrons results in increased sensitivity in the flow cytometer.

L5-MG E52D [2] = type: physicochemical, human; conditions: bound to L5-MG E52D; for Relative quantum yield, 514 nm / Relative quantum yield, 532 nm / Relative quantum yield, 561 nm: normalized to 633 nm value; for Relative quantum yield, 633 nm: set to 1.00
L5-MG E52D [3] = type: physicochemical, human; conditions: soluble dyedron/L5-MG E52D complex; 620 nm excitation
Description: Fluoromodules were assembled as above, and quantum yields based on the acceptor MG excitation band were determined as described using Cy5.18 as the calibration dye (Szent-Gyorgyi, C., et al., Nature Biotechnology 2008, 26, 235-240). Quantum yields determined with 620 nm excitation (Table 2) were essentially the same as unreported quantum yields determined with 590 nm excitation (<5% difference).

L5-MG E52D [4] = type: physicochemical, human; conditions: soluble dyedron/L5-MG E52D complex
[5] = system: control strain JAR200 that does not express scFv; assay: Flow cytometry, control strain that does not express scFv; type: cell-based, Saccharomyces cerevisiae; conditions: 300 nM dyedron, 675/50 bandpass
Description: as §1

L5-MG E52D [6] = type: binding, human; conditions: yeast cell surface displayed L5-MG E52D; PBS+
Description: Microplate fluorometry was carried out on a Tecan Safire2 microplate reader using 96 well microplates with 5×10^6 yeast cells/well.
Yeast JAR200 cells expressing L5-MG E52D were suspended at 10^7 cells/ml in modified PBS+ buffer in the presence of the indicated dyedron concentrations. Fluorescence was read on a Safire2 plate fluorimeter. KD values reported in Table 2 were determined using GraphPad Prism 4 software fits to the one site hyperbolic binding curves shown here. Under these conditions, KD values below 1 nM cannot be determined precisely. Plateau fluorescence levels correspond closely to the relative fluorescence signals seen in flow cytometric analyses using 635 nm laser excitation of the MG band (Table 3).

[7] = Donor array fluorescence of Cy3-labeled cystamine core PAMAM dendrimers; type: physicochemical
Description: To test the impact of high loading on donor array fluorescence, two cystamine core PAMAM dendrimers (Gen2-16 NH2 and Gen3-32 NH2) were labeled with an excess of monoreactive Cy3-NHS ester. After removal of excess dye by gel filtration the resulting macromolecules were analyzed by electrophoresis, and found to have low net mobility. Because each Cy3 molecule carries one net negative charge, a fully modified dendron should have a net charge of −2. […] However, these conjugates allow for the assessment of the potential risk of donor quenching.

selected scFv = assay: Fluorescence activation of malachite green by selected scFv; type: biochemical; conditions: in buffer
[8] = not given; remark: listed apart in the source

Row | SMILES | increase in specific brightness (factor), 532 nm vs 635 nm staining ratio [1] | 532 laser median [1] | 635 laser median [1] | 532 laser mean [1] | 635 laser mean [1] | FACS532/FACS635 [1] | Relative quantum yield, 514 nm (L5-MG E52D [2]) | Relative quantum yield, 532 nm (L5-MG E52D [2]) | Relative quantum yield, 561 nm (L5-MG E52D [2]) | Relative quantum yield, 633 nm (L5-MG E52D [2]) | φMG (quantum yield for MG excitation peak) (L5-MG E52D [3]) | εmax [M^−1cm^−1] (L5-MG E52D [4]) | εmax [nm] (L5-MG E52D [4]) | 532 laser mean [5] | 532 laser median [5] | 635 laser mean [5] | 635 laser median [5] | pKd (L5-MG E52D [6]) | also measured
1 | CC[N+]1=C(/C=C/C=C2/N(CCCCCC(=O)NCC(CNC(=O)CCCCCN3/C(=C/C=C/C4=[N+](CC)c5ccc(S(=O)(=O)O)cc5C4(C)C)C(C)(C)c4cc(S(=O)(=O)[O-])ccc43)OCC(=O)NCCCOc3ccc(C(=C4C=CC(=[N+](C)C)C=C4)c4ccc(N(C)C)cc4)cc3)c3ccc(S(=O)(=O)[O-])cc3C2(C)C)C(C)(C)c2cc(S(=O)(=O)[O-])ccc21 (centres unmarked) [BCM] | ~3 | 6912 | 2047 | 17894 | 5521 | 3.27 | 0.92 | 0.86 | 1.31 | 1.00 | 0.047 | 290,000 M^−1cm^−1 | 551 nm | 113 | 84 | 105 | 64 | 8.40 | –
2 | CCN1/C(=C\C=C\C2=[N+](CCCCCC(=O)NCCNC(=O)CCCOc3ccc(C(=C4C=CC(=[N+](C)C)C=C4)c4ccc(N(C)C)cc4)cc3)c3ccc(S(=O)(=O)[O-])cc3C2(C)C)C(C)(C)c2cc(S(=O)(=O)[O-])ccc21 [CM, 1-{6-[(2-{[4-(4-{[4-(dimethylamino)phenyl][4-(dimethyliminio)cyclohexa-2,5-dien-1-ylidene]methyl}phenoxy)butanoyl]amino}ethyl)amino]-6-oxohexyl}-2-[(1E,3Z)-3-(1-ethyl-3,3-dimethyl-5-sulfonato-1,3-dihydro-2H-indol-2-ylidene)prop-1-en-1-yl]-3,3-dimethyl-3H-indolium-5-sulfonate] | about 2 | 6170 | 2793 | 15946 | 7455 | 2.17 | 1.24 | 1.08 | 1.41 | 1.00 | 0.057 | 140,000 M^−1cm^−1 | 552 nm | 123 | 95 | 108 | 65 | > 9.00 | –
3 | CCN1/C(=C\C=C\C2=[N+](CCCCCC(=O)O)c3ccc(S(=O)(=O)O)cc3C2(C)C)C(C)(C)c2cc(S(=O)(=O)[O-])ccc21 [Cy3] | – | – | – | – | – | – | – | – | – | – | – | – | – | – | – | – | – | – | Estimated Diam. (nm) [7]: 1.5 nm
4 | CN(C)c1ccc(C(=C2C=CC(=[N+](C)C)C=C2)c2ccc(OCCCC(=O)NCCNC(=O)CCC(=O)NCCOCCOCCN)cc2)cc1 [M, malachite green diethyleneglycolamine] | – | 335 | 2635 | 435 | 7089 | 0.07 | – | – | 1.44 | 1.00 | 0.055 | 79,000 M^−1cm^−1 | 642 nm | 111 | 76 | 118 | 74 | > 9.00 | extinction coefficient (PBS+): 50,700 M^−1cm^−1; extinction coefficient (ethanol/5% HAc): 91,500 M^−1cm^−1
5 | CN(C)c1ccc(C(=C2C=CC(=[N+](C)C)C=C2)c2ccccc2)cc1 [Malachite green] | – | – | – | – | – | – | – | – | – | – | – | – | – | – | – | – | – | – | activation to fluorescent state (fold) (selected scFv): > 15,000 fold
6 | CN(C)c1ccc(C(C#Cc2ccc(N(C)CCOCCCC(=O)O)cc2)=C2C=CC(=[N+](C)C)C=C2)cc1.[Cl-] [acetylenic derivative of malachite green] | – | – | – | – | – | – | – | – | – | – | – | – | – | – | – | – | – | – | quantum yield in water [8]: ≤ 0.003
